According to patent US20230144436A1, “MUSCLE TARGETING COMPLEXES AND USES THEREOF FOR TREATING MYOTONIC DYSTROPHY” (Dyne Therapeutics, Inc., priority 2020, published 2023):

Key:
[1] = test system: DMPK; assay: Dose-responsive DMPK reduction in DM1 C15 myotubes (EC-50); format: cell-based; settings: DM1 C15 differentiated myotubes, 72 hours; for EC50: transfection with Lipofectamine MessengerMax, 0.046-100 nM; for Percent DMPK reduction at 100 nM: transfection
Procedure: Eighteen oligonucleotides from Example 7 were selected to be evaluated for their ability to reduce DMPK expression in a dose-responsive manner. DM1 C15 myoblasts were prepared as in Example 7 to yield differentiated myotubes in 96-well microplates. After seven days of differentiation, cells were transfected with individual oligonucleotides using Lipofectamine MessengerMax. Each oligonucleotide was tested in triplicate at concentrations of 0.046 nM, 0.137 nM, 0.412 nM, 1.235 nM, 3.704 nM, 11.11 nM, 33.33 nM, and 100 nM by 3-fold serial dilutions using 0.3 μL of Lipofectamine MessengerMax per well.
Following addition of oligonucleotide, cells were incubated for 72 hours prior to harvesting for total RNA. cDNA was synthesized from the total RNA extracts and qPCR was performed to determine expression levels of DMPK using a commercially available Taqman probeset in technical quadruplicate. All qPCR data were analyzed using a traditional ΔΔCT method and were normalized to a plate-based negative control that comprised of cells treated with vehicle control (0.3 μL/well Lipofectamine MessengerMax without any oligonucleotide). Data for each oligonucleotide to was fit to sigmoidal curve in order to determine an effective concentration of each oligonucleotide that provided a half-maximal response (EC-50).

[2] = test system: DMPK; assay: DMPK knockdown by transfected antisense oligonucleotides in DM1 C15 myotubes at 0.5 nM and 50 nM; format: cell-based; settings: 72 hours; for Normalized DMPK Remaining: relative to vehicle control = 1.00
In short: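 Seven-day-differentiated DM1 C15 myotubes transfected (Lipofectamine MessengerMax) with each oligonucleotide at 0.5 nM or 50 nM final, biological triplicates. After 72 h, DMPK mRNA quantified by qPCR, expressed relative to vehicle-only transfection set to 1.00.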

[3] = 0.5 nM oligonucleotide, qPCR, relative to vehicle control
[4] = 50 nM oligonucleotide, qPCR, relative to vehicle control

Row | Substance | EC50 [1] [nM] | Percent DMPK reduction at 100 nM [1] [%] | Percent DMPK Reduction [2, 3] [%] | Normalized DMPK Remaining ([2]; 0.5 nM oligonucleotide, qPCR) | Percent DMPK Reduction [2, 4] [%] | Normalized DMPK Remaining ([2]; 50 nM oligonucleotide, qPCR) | Percent DMPK Reduction ([2]; 0.5 nM oligonucleotide) [%] | Normalized DMPK Remaining ([2]; 0.5 nM oligonucleotide) | Percent DMPK Reduction ([2]; 50 nM oligonucleotide) [%] | Normalized DMPK Remaining ([2]; 50 nM oligonucleotide)
1 | 280 (UUGCCAUAGGUCUCCGCCGU; chemistry not given here) [compound 280] | 0.37 | 93.70 | 36.30 | 0.64 | 60.12 | 0.40 | – | – | – | –
2 | 286 (GCUUCAUCUUCACUACCGCU; chemistry not given here) [compound 286] | 0.03 | 64.06 | 31.44 | 0.69 | 51.78 | 0.48 | – | – | – | –
3 | 316 (AGCAGGAUGUUGUCGGGUUU; chemistry not given here) [compound 316] | 0.227 | 85.81 | 41.05 | 0.59 | 74.02 | 0.26 | – | – | – | –
4 | 294 (CGUUCCAUCUGCCCGCAGCU; chemistry not given here) [compound 294] | 0.19 | 89.97 | 33.74 | 0.66 | 68.72 | 0.31 | – | – | – | –
5 | 257 (CAUGGCAUACACCUGGCCCG; chemistry not given here) [compound 257] | 0.42 | 75.28 | 31.63 | 0.68 | 74.03 | 0.26 | – | – | – | –
6 | 260 (CGAAUGUCCGACAGUGUCUC; chemistry not given here) [compound 260] | 0.18 | 95.93 | 40.21 | 0.60 | 64.42 | 0.36 | – | – | – | –
7 | 346 (GACAGAACAACGGCGAACAG; chemistry not given here) [compound 346] | 0.08 | 94.32 | 21.41 | 0.79 | 70.49 | 0.30 | – | – | – | –
8 | 272 (CUCUGCCGCAGGGACAGCCG; chemistry not given here) [compound 272] | 0.42 | 93.66 | 37.09 | 0.63 | 93.59 | 0.06 | – | – | – | –
9 | 320 (CCCAGCGCCCACCAGUCACA; chemistry not given here) [compound 320] | 5.45 | 63.69 | 37.93 | 0.62 | 67.82 | 0.32 | – | – | – | –
10 | 288 (CAGGGACAGCCGCUGGAACU; chemistry not given here) [compound 288] | 6.04 | 90.59 | 32.09 | 0.68 | 58.84 | 0.41 | – | – | – | –
11 | 301 (UGUUGUCGGGUUUGAUGUCC; chemistry not given here) [compound 301] | 0.21 | 93.95 | 21.00 | 0.79 | 42.19 | 0.58 | – | – | – | –
12 | 313 (GGACGAUCUUGCCAUAGGUC; chemistry not given here) [compound 313] | 3.59 | 92.18 | 29.82 | 0.70 | 48.97 | 0.51 | – | – | – | –
13 | 293 (GAAUGUCCGACAGUGUCUCC; chemistry not given here) [compound 293] | 0.07 | 97.23 | 30.09 | 0.70 | 63.41 | 0.37 | – | – | – | –
14 | 278 (CCAUCUCGGCCGGAAUCCGC; chemistry not given here) [compound 278] | 0.44 | 95.42 | 20.50 | 0.79 | 59.76 | 0.40 | – | – | – | –
15 | 299 (GCAGGAUGUUGUCGGGUUUG; chemistry not given here) [compound 299] | 0.168 | 89.77 | 44.39 | 0.56 | 78.03 | 0.22 | – | – | – | –
16 | 310 (GCGUAGAAGGGCGUCUGCCC; chemistry not given here) [compound 310] | 24.6 | 95.13 | 39.53 | 0.60 | 77.91 | 0.22 | – | – | – | –
17 | 372 (UGGCCAUGACAAUCUCCGCC; chemistry not given here) [compound 372] | – | – | 30.46 | 0.70 | 72.55 | 0.27 | – | – | – | –
18 | 247 (GGGCCCGGAUCACAGGACUG; chemistry not given here) [compound 247] | – | – | 57.97 | 0.42 | 61.96 | 0.38 | – | – | – | –
19 | 404 (CUCUGCCUCGCGUAGUUGAC; chemistry not given here) [compound 404] | – | – | – | – | – | – | 16.61 | 0.83 | 91.21 | 0.09
20 | 362 (GCUGUCCCGGAGACCAUCCC; chemistry not given here) [compound 362] | 3.27 | 93.07 | 22.57 | 0.77 | 66.27 | 0.34 | – | – | – | –
21 | 466 (GUCCAGCAGGAUGUGUCGG; chemistry not given here) [compound 466] | – | – | – | – | – | – | 30.00 | 0.70 | 82.64 | 0.17
22 | 270 (GGGCCUGGGACCUCACUGUC; chemistry not given here) [compound 270] | 0.07 | 90.58 | 37.19 | 0.63 | 76.81 | 0.23 | – | – | – | –
23 | 302 (CCACGUAAUACUCCAUGACC; chemistry not given here) [compound 302] | – | – | 20.84 | 0.79 | 50.06 | 0.50 | – | – | – | –
